Assay results as given in patent publication US11897880B2, “7,8-dihydrobenzo[e]pyrido[3,4-c]azocine-2,5(3H,6H)-dione derivatives useful as a factor XIa inhibitors” (Janssen Pharmaceutica NV, priority 2021, dated 2024).
Where two headings read alike, the source gives them in different places.

How the values were obtained:
human plasma kallikrein = human plasma kallikrein (Homo sapiens, UniProt P03952); assay: Kallikrein inhibition assay utilizing a quenched AMC peptide substrate (FLINT); assay type: biochemical; details: 30 min preincubation, 50 μM Z-Gly-Pro-Arg-AMC, 2 nM kallikrein
Description: Biological Example 2: Kallikrein Inhibition Assay Utilizing a Quenched AMC Peptide Substrate
A fluorescence intensity (FLINT) based assay was used to monitor inhibition of human plasma kallikrein. The peptide substrate, Z-Gly-Pro-Arg-AMC (Purchased from Bachem; Catalog #1-1150) was chosen based on its relatively low KM for kallikrein which enables running the assay at lower substrate concentrations to control background fluorescence.
The Kallikrein FLINT assay was used with the following Z-Gly-Pro-Arg-AMC assay buffer: 50 mM Tris, pH 7.5, 100 mM NaCl, 5 mM CaCl2), 0.1 mg/mL BSA, 0.03% CHAPS. Assay buffer was prepared by mixing all ingredients fresh. 2× Z-Gly-Pro-Arg-AMC peptide substrate was prepared by diluting 10 mM stock into 1× assay buffer for a 100 μM working concentration (50 μM final concentration). The 2× kallikrein stock solution was prepared by diluting 14.76 μM stock in 1× assay buffer for a 4 nM working stock solution (2 nM final concentration).
Test compound(s) were run in an 11-point, 3-fold serial dilution with a final top compound concentration of 1 μM. Final DMSO in assay was 2%. Plasma kallikrein was pre-incubated for 30-minute with compound and then 50 μM substrate was added to initiate the reaction. The assay was run with kinetic (KIN) reads at 5 min intervals over 30 minutes. The time course was linear using 2 nM kallikrein greater than 30 minutes. More specifically, the assay was run as follows: • 100 nL of 0.1 mM test compound was dispensed into black 384-well non-binding Greiner BioOne 784900 plate for 1 μM final concentration; • 5 μL of 1× assay buffer was dispensed to columns 24 (low control) and 5 μL 2× human kallikrein enzyme solution was dispensed to columns 1-23 (column 23 high control); • the plate was centrifuged with a “cover” plate at 500 rpm for 1 min • the plate was pre-incubated for 30 minutes at room temperature with plate covered; • 5 μL of 2× Z-Gly-Pro-Arg-AMC peptide substrate was dispensed into the entire plate, columns 1-24; • the plate was centrifuged with a “cover” plate at 500 rpm for 1 min; the plate was read monitoring fluorescence intensity on the BMG PHERAStar at room temperature, using fluorescence module 340 nm/440 nm.
Percent inhibition (IC50) curves were generated per compound tested, and data was analyzed using a 4-parameter logistic fit using GeneData Screener. The relative fluorescence unit (RFU) values were normalized to percent inhibition using the following equation: % inhibition=((HC−LC)−(compound−LC)/(HC−LC))*100 where LC—low control=mean signal of human kallikrein enzyme or 100% inhibition of human kallikrein enzyme; HC—high control=mean signal of […]+Z-Gly-Pro-Arg-AMC peptide substrate with DMSO only.
An 11-point dose response curve for the test compound(s) was generated using GENDATA to determine IC50 value based on the following equation: Y=Bottom+(Top−Bottom)/(1+10^((log IC50−X)*HillSlope)) • where Y is the % inhibition in the presence of X inhibitor concentration, Top=high control=mean signal of human kallikrein enzyme+Z-Gly-Pro-Arg-AMC peptide substrate with DMSO only; Bottom=low control−mean signal of no human kallikrein enzyme or 100% inhibition of human kallikrein enzyme; HillSlope—Hill coefficient; and IC50=concentration of compound with 50% inhibition in relation to top/high control.
(§1) Representative compounds of formula (I) of the present invention were tested according to the procedure described in Biological Example 1 and Biological Example 2 above, with results as listed in Table 3, below.

Factor XIa = Factor XIa (Homo sapiens, UniProt P03951); assay: Factor XIa inhibition assay utilizing a fluorophore-quencher pair peptide substrate (FLINT); assay type: biochemical; details: for IC50: read-out: FXIa IC50; for Ki: read-out: FXIa Ki
Description: Biological Example 1: Factor XIa Inhibition Assay Utilizing a Fluorophore-Quencher Pair Peptide Substrate
A fluorescence intensity (FLINT) based assay was used to monitor inhibition of Factor XIa. The peptide substrate, 5Fam-KLTRAETV-K5Tamra (purchased from New England Peptide) was chosen based on the FXI sequence. Conversion of zymogen FXI to its activated form, FXIa, occurs by proteolytic cleavage by […] at two sites, Arg146 and Arg180. The custom peptide used in this assay was based on the Arg146 cleavage site of FXI. The peptide substrate was designed with a fluorophore-quencher pair, where the fluorescence is quenched until FXIa cleaves the 8-mer peptide after the Arg residue.
The Factor XIa FLINT assay was used with the following 5Fam-KLTRAETV-K5Tamra assay buffer: 50 mM Tris, pH 7.5, 100 mM NaCl, 5 mM CaCl2), 0.1 mg/mL BSA, 0.03% CHAPS. Assay buffer was prepared by mixing all ingredients fresh. 5Fam-KLTRAETV-K5Tamra peptide substrate was first prepared at 10 mM in 100% DMSO, then diluted to 3 mM in 100% DMSO. Assay buffer was then added directly to the 3 mM stock of substrate to prepare the 30 μM 2× working concentration (15 μM final concentration). The 2× Factor XIa stock solution was prepared by diluting 6.562 μM stock in 1× assay buffer for a […].
Test compound(s) were run in an 11-point, 3-fold serial dilution with a final top compound concentration of 100 nM. Final DMSO in assay was 2%. FXIa was preincubated with compound for 30-minutes and then substrate was added to initiate the reaction. The assay was run with kinetic (KIN) reads at 5 min intervals over 30 minutes. The time course was linear using […] FXIa greater than 30 minutes. More specifically, the assay was run as follows: • 100 nL of 0.01 mM test compound was dispensed into black 384-well non-binding Greiner BioOne 784900 plate for 0.1 μM final concentration; • 5 μL of 1× assay buffer was dispensed to column 24 (low control) and 5 μL 2× Factor XIa solution was dispensed to columns 1-23 (column 23 high control); • the plate was centrifuged with a “cover” plate at 500 rpm for 1 min • the plate was pre-incubated for 30 minutes at room temperature with plate covered; • 5 μL of 2×5Fam-KLTRAETV-K5Tamra peptide substrate was dispensed into the entire plate, columns 1-24; • the plate was centrifuged with a “cover” plate at 500 rpm for 1 min; • the plate was read monitoring fluorescence intensity on the BMG PHERAStar at room temperature, using fluorescence module 485 nm/520 nm.
Percent inhibition (IC50) curves were generated per compound tested, and data was analyzed using a 4-parameter logistic fit using GeneData Screener. The relative fluorescence unit (RFU) values were normalized to percent inhibition using the following equation: % inhibition=((HC−LC)−(compound−LC)/(HC−LC))*100
where LC−low control=mean signal of no Factor XIa or 100% inhibition of Factor XIa; HC−high control=mean signal of Factor XIa+5Fam-KLTRAETV-K5Tamra peptide substrate with DMSO only.
An 11-point dose response curve for the test compound(s) was generated using GENDATA to determine IC50 value based on the following equation: Y=Bottom+(Top−Bottom)/(1+10^((log IC50−X)*HillSlope))
where Y is the % inhibition in the presence of X inhibitor concentration, Top=high control=mean signal of Factor XIa+5Fam-KLTRAETV-K5Tamra peptide substrate with DMSO only; Bottom=low control−mean signal of no Factor XIa or 100% inhibition of Factor XIa; HillSlope−Hill coefficient; and IC50=concentration of compound with 50% inhibition in relation to top/high control.
as §1

[1] = cells that print μM themselves in the nM column, same assay conditions
[2] = cells that print μM themselves in the nM column
[3] = 30 min preincubation, 5Fam-KLTRAETV-K5Tamra substrate 15 μM final, kinetic reads

Sequence of human plasma kallikrein (P03952 391-638 limits assumed): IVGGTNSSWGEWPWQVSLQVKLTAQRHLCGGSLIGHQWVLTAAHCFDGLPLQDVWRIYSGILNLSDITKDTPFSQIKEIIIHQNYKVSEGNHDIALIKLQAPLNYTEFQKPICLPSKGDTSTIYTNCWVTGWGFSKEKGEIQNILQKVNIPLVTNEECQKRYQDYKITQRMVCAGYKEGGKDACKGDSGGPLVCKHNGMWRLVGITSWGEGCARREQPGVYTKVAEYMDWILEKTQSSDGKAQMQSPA
Sequence of human plasma kallikrein (P03952 20-390 partner limits assumed): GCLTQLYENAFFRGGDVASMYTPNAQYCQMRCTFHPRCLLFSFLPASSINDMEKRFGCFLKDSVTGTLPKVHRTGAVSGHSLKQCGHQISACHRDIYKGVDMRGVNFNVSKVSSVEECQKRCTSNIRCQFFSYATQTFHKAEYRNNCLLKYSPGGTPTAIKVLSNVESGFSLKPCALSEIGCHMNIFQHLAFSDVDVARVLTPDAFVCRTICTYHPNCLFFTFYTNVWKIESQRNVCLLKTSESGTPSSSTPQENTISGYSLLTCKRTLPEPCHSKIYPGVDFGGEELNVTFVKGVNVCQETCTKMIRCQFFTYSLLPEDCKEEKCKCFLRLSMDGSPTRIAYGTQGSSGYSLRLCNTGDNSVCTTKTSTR
Sequence of Factor XIa (P03951 388-625 limits assumed): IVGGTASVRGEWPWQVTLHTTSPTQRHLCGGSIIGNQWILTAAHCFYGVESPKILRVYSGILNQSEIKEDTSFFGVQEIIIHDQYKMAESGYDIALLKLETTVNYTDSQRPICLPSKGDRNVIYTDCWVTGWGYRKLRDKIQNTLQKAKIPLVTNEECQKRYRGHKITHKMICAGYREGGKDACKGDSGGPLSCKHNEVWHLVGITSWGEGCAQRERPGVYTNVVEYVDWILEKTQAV
Sequence of Factor XIa (P03951 19-387 partner limits assumed): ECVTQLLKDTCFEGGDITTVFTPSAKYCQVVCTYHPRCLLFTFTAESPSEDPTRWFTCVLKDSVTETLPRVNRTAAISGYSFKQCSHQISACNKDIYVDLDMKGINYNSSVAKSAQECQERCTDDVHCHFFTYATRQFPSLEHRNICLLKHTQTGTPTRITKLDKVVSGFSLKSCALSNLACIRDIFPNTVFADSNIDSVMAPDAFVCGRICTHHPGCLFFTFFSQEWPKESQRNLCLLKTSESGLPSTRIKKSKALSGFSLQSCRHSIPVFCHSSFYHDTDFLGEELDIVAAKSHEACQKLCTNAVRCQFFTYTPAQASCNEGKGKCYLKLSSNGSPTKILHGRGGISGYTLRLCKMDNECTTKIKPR

Compound	IC50 (human plasma kallikrein) [nM]	IC50 (Factor XIa; [1]) [µM]	Ki (Factor XIa) [µM]	Ki (Factor XIa; [2]) [µM]	IC50 (Factor XIa; [3]) [µM]
O=C1NC2(CC2)Cc2ccc(Cl)c(F)c2-c2cc(=O)n(C(CC3CC3)c3ncc(-c4ccc(F)cc4)[nH]3)cc21 (single isomer, unassigned) [Compound 64, (R*)-11-chloro-3-(2-cyclopropyl-1-(5-(4-fluorophenyl)-1H-imidazol-2-yl)ethyl)-12-fluoro-3H-spiro[benzo[e]pyrido[3,4-c]azocine-7,1′-cyclopropane]-2,5(6H,8H)-dione]	> 10000	1.13	0.564		
Nc1ccc(-c2cnc([C@@H]3CCc4c5c(cc(=O)n43)-c3c(ccc(Cl)c3F)CCNC5=O)[nH]2)c(F)n1 (stereo in doubt) [Compound 46, (S*)-12-(5-(6-amino-2-fluoropyridin-3-yl)-1H-imidazol-2-yl)-7-chloro-8-fluoro-3,4,13,14-tetrahydrobenzo[5,6]azocino[4,3-g]indolizine-1,10(2H,12H)-dione]	> 10000	9.15		4.57	
O=C1NC2(CC2)Cc2ccc(Cl)c(F)c2-c2cc(=O)n(C(CC3CC3)c3ncc(-c4ccc(F)cc4)[nH]3)cc21 (single isomer, unassigned) [Compound 65, (S*)-11-chloro-3-(2-cyclopropyl-1-(5-(4-fluorophenyl)-1H-imidazol-2-yl)ethyl)-12-fluoro-3H-spiro[benzo[e]pyrido[3,4-c]azocine-7,1′-cyclopropane]-2,5(6H,8H)-dione]	5720		0.0508		0.102
O=C1NC2(CC2)Cc2ccc(Cl)c(F)c2-c2cc(=O)n3c(c21)CCC3c1ncc(-c2ccnc(CO)c2F)[nH]1 (stereo not drawn) [Compound 3, 7-chloro-8-fluoro-12-(5-(3-fluoro-2-(hydroxymethyl)pyridin-4-yl)-1H-imidazol-2-yl)-13,14-dihydro-2H-spiro[benzo[5,6]azocino[4,3-g]indolizine-3,1′-cyclopropane]-1,10(4H,12H)-dione]	790		0.0076		0.0153
O=C1NC2(CC2)Cc2ccc(Cl)c(F)c2-c2cc(=O)n3c(c21)CC[C@H]3c1ncc(-c2ccc3snnc3c2)[nH]1 (stereo in doubt) [Compound 31, (S*)-12-(5-(benzo[d][1,2,3]thiadiazol-5-yl)-1H-imidazol-2-yl)-7-chloro-8-fluoro-13,14-dihydro-2H-spiro[benzo[5,6]azocino[4,3-g]indolizine-3,1′-cyclopropane]-1,10(4H,12H)-dione]	> 10000	1.18	0.588		
O=C1NC2(CC2)Cc2ccc(Cl)c(F)c2-c2cc(=O)n([C@@H](CC3CC3)c3ncc(-c4ccncc4)[nH]3)cc21 (single isomer, unassigned) [Compound 67, (S*)-11-chloro-3-(2-cyclopropyl-1-(5-(pyridin-4-yl)-1H-imidazol-2-yl)ethyl)-12-fluoro-3H-spiro[benzo[e]pyrido[3,4-c]azocine-7,1′-cyclopropane]-2,5(6H,8H)-dione]	1390		0.0064		0.0129
O=C1NC2(CC2)Cc2ccc(Cl)c(F)c2-c2cc(=O)n(C(CC3CC3)c3ncc(-c4cc[n+]([O-])cc4)[nH]3)cc21 (single isomer, unassigned) [Compound 57, (R*)-4-(2-(1-(11-chloro-12-fluoro-2,5-dioxo-2,5,6,8-tetrahydro-3H-spiro[benzo[e]pyrido[3,4-c]azocine-7,1′-cyclopropan]-3-yl)-2-cyclopropylethyl)-1H-imidazol-5-yl)pyridine 1-oxide]	> 10000	9.69		4.84	
Nc1ccc(-c2cnc([C@H]3CCc4c5c(cc(=O)n43)-c3c(ccc(Cl)c3F)CC3(CC3)N(CCO)C5=O)[nH]2)c(F)n1 (single isomer, unassigned) [Compound 10, (R*)-12-(5-(6-amino-2-fluoropyridin-3-yl)-1H-imidazol-2-yl)-7-chloro-8-fluoro-2-(2-hydroxyethyl)-13,14-dihydro-2H-spiro[benzo[5,6]azocino[4,3-g]indolizine-3,1′-cyclopropane]-1,10(4H,12H)-dione]	> 10000	1.85	0.926		
O=C1NC2(CC2)Cc2ccc(Cl)c(F)c2-c2cc(=O)n3c(c21)CC[C@@H]3c1ncc(-c2ccc3snnc3c2)[nH]1 (stereo in doubt) [Compound 30, (R*)-12-(5-(benzo[d][1,2,3]thiadiazol-5-yl)-1H-imidazol-2-yl)-7-chloro-8-fluoro-13,14-dihydro-2H-spiro[benzo[5,6]azocino[4,3-g]indolizine-3,1′-cyclopropane]-1,10(4H,12H)-dione]	330		0.0029		0.0057
CC1(C)Cc2ccc(Cl)c(F)c2-c2cc(=O)n3c(c2C(=O)N1)CC[C@@H]3c1ncc(-c2ccc(N)nc2F)[nH]1 (single isomer, unassigned) [Compound 21, (R*)-12-(5-(6-amino-2-fluoropyridin-3-yl)-1H-imidazol-2-yl)-7-chloro-8-fluoro-3,3-dimethyl-3,4,13,14-tetrahydrobenzo[5,6]azocino[4,3-g]indolizine-1,10(2H,12H)-dione]	> 10000	1.2	0.598		
